{
  "source": "patent US20170304466A1",
  "about": "“AAV-Based Gene Therapy” (Arthrogen B.V., priority 2014, published 2017)",
  "key": {"[1]": {"system": "macrophages (F4/80+, CD68+)", "assay": "FLOW cytometry of macrophages in spleen and synovium of arthritic mice", "format": "in vivo", "conditions": "48 hrs after triamcinolone 5 mg/kg i.m.", "procedure": "Macrophages in spleen and synovium were analyzed by FLOW cytometry. Briefly, synovial cells were extracted by scraping cells from the joint followed by digestion with Liberase/DNase for 30 min at 37° C. Cells were then washed (PBS/EDTA) and passed through a cell strainer. Synovial cells were centrifuged (1400 rpm, 5 min, 4° C.) and resuspended in FACS buffer (PBS+1% BSA). Due to the low number of cells in the synovium, all animals from each group were pooled. Spleen cells were isolated by mechanical disruption and flushing cells through a cell strainer. Red blood cells were lysed by addition of RBC lysis buffer (Life Technologies), followed by 10 min incubation on ice. Cells were centrifuged and resuspended in FACS buffer. Cells (pooled synovium or splenocytes (1e6 cells) were blocked with 5% normal mouse serum (Sanquin) and stained with F4/80-APC and CD68-FITC labeled antibodies (BD Biosciences). Data was acquired on a BD Canto2 and was analyzed using FlowJo software (FLOWJO LLC, Ashland Oreg.)\nTo further investigate the mechanism of action behind the effect of triamcinolone on transgene expression, an ex vivo analysis was carried out on synovial tissue and splenocytes to assess the effect on the numbers and activity of macrophages and other cell types. […]"}, "mice with CIA [2]": {"system": "mice with CIA", "assay": "Arthritis activity clinical score in CIA mice", "format": "in vivo", "procedure": "Collagen induced arthritis (CIA) was induced by means of an intradermal injection of 100 μl collagen type II (2 mg/ml), diluted 1:1 in CFA (mineral oil and heat-killed M. Tuberculosis 2 mg/ml) (Chondrex Inc., Redmond, Wash., USA). On day 21 a booster injection was administered intraperitoneally containing 100 μg collagen type II dissolved in 100 μl NaCl.\nArthritis activity was scored 3-weekly from day 18 on with a semi-quantitative scoring system, each mouse paw was analyzed separately (0—normal; 1—swelling and/or erythema of 1 joint; 2—swelling in multiple joints; 3—swelling of all joints; 4—swelling of whole paw and at least one of the following symptoms: ankylosis, loss of function)."}, "healthy mice [3]": {"system": "healthy mice", "assay": "Intra-articular rAAV2 luciferase expression, in vivo imaging in healthy mice", "conditions": "AAV2-CMV-Fluc 1.26e10 vg/joint, compared with vector alone, up to week 4", "description": "(§1) In brief, the plasmid encodes the Fluc gene under the control of the CMV promoter and a human growth hormone polyadenylation signal. […] The genome containing vector and empty AAV capsid particles were purified by combined chromatography and cesium chloride density gradient centrifugation. […] Vector titers were determined by qPCR and expressed as vector genomes/ml (vg/ml).\nLuciferase expression was measured at different time points after vector administration, from day 3 up till 6 months in different experiments. D-luciferin potassium-salt substrate (Caliper Life Sciences, Hopkinton, Mass., USA) was injected intraperitoneally (150 mg/kg of body weight, in a volume of approximately 200 μl). Photon counts were acquired 10 minutes after substrate administration for 5 minutes using a cooled charge-coupled device (CCD) camera system (Photon Imager, Biospace Lab, Paris, France). […] Image processing and signal intensity quantification and analysis were performed using M3 Vision (Biospace Lab). […] The number of photons emitted per second per square centimetre per steradian was calculated as a measure of luciferase activity.\nTo test this hypothesis, we performed an experiment were we evaluated if triamcinolone and empty capsid could enhance gene expression from a serotype that is very different from AAV5, that being AAV2. […] Luciferase expression was monitored by live animal IVIS imaging."}, "air pouch membrane": {"system": "air pouch membrane", "assay": "Luciferase expression in air pouch synovial inflammation (APSI) model", "format": "in vivo, mice", "conditions": "triamcinolone 5 mg/kg i.m. on d9, vector 3.16e11 vg on d11; assay d30", "procedure": "Air pouches were formed as previously described (O'Boyle et al. (2009) FASEB J. 23 (11): 3906-3916). Briefly, 3 mls of air was injected subcutaneously into the back of each animal. The air pouches were kept inflated by re-injection of air as necessary. rAAV5.CMV.Fluc vector (3.16e11 vg) was administered into the pouch in a volume of 1 ml on d0, d11, or d18 post air pouch formation. For triamcinolone treated animals, triamcinolone was administered (5 mg/kg) by i.m. injection 2 days prior to vector administration on d11. On d30, mice were sacrificed and air pouch membrane was removed and snap frozen. Frozen air pouch tissue was homogenized in passive lysis buffer (Promega) and luciferase was measured by standard luciferase assay (Promega).\nThe air pouch synovial inflammation (APSI) model was initially developed as a way to model human synovium in a mouse. It involves the injection of air under the skin on the back of a mouse. After 6-7 days, a lining membrane will form around this air pouch. This lining is very similar to the synovial lining that forms around the joint cavity, consisting primarily of fibroblast like cells and macrophages. […] We hypothesized that perhaps the macrophages lining the air pouch membrane were inhibiting the transduction of the vector (similar to what we have observed in intra-articular injected vector). […]"}, "mice with CIA [4]": {"system": "mice with CIA", "format": "in vivo", "description": "In brief, the plasmid encodes the Fluc gene under the control of the CMV promoter and a human growth hormone polyadenylation signal. The transgene cassette is flanked by AAV-2 inverted terminal repeats and is packaged in capsid from AAV5.[Gao G P et al; PNAS 2002; 11854] The genome containing vector and empty AAV capsid particles were purified by combined chromatography and cesium chloride density gradient centrifugation. […] Vector titers were determined by qPCR and expressed as vector genomes/ml (vg/ml).\nIntra-articular rAAV5 expression was investigated in male DBA mice (8-12 week old; Harlan Sprague Dawley, Horst, The Netherlands) in 5 animal experiments. Mice were injected with rAAV5.CMV.Fluc in both knee joints (with or without injection of ankle joints) and monitored periodically for luciferase expression (from 5 days up till 6 months). For animals without arthritis the vector was administered on day 1, in arthritic animals the vector was injected on day 17 or 24 after immunization, at the onset of disease. Animals received between 1.26e10 and 1.5e10 vg per knee joint (in a volume of 5 μl) and 0.75e10 vg per ankle joint (in a volume of 2.5 μl). Empty capsids were co-administered with the genome containing particles in several groups in a 5:1 or 20:1 ratio (ratio expressed as empty capsids to genome containing vectors). Groups consisted of 5 to 18 animals.\nTwo days prior to vector administration, triamcinolone was administered intra-muscularly (i.m.), similar to the use in RA patients. […] Taking into account the faster metabolic rate in mice (factor 12.5), a dose of 5 mg/kg bodyweight was used, administered in a volume of 50 μl. Control groups received an i.m. injection with 50 μl NaCl. […]\n(§2) Luciferase expression was measured at different time points after vector administration, from day 3 up till 6 months in different experiments. […] Image processing and signal intensity quantification and analysis were performed using M3 Vision (Biospace Lab). […] The number of photons emitted per second per square centimetre per steradian was calculated as a measure of luciferase activity.\nLuminescence over time was investigated using generalized estimating equations (GEE) to allow for longitudinal analysis (including all available longitudinal data and allowing unequal numbers of repeated measurements) (Twisk (2004) Eur. J. Epidemiol. 19(8):769-776). All other statistics were analyzed using Graphpad Prism (Ja Jolla, Calif., USA). […]"}, "healthy mice [5]": {"system": "healthy mice", "assay": "Intra-articular rAAV5 luciferase expression, in vivo imaging in healthy mice", "conditions": "AAV5-CMV-Fluc 1.26e10 vg/joint, compared with vector alone, up to week 8", "description": "as §1\nIntra-articular rAAV5 expression was investigated in male DBA mice (8-12 week old; Harlan Sprague Dawley, Horst, The Netherlands) in 5 animal experiments. Mice were injected with rAAV5.CMV.Fluc in both knee joints (with or without injection of ankle joints) and monitored periodically for luciferase expression (from 5 days up till 6 months). […] Empty capsids were co-administered with the genome containing particles in several groups in a 5:1 or 20:1 ratio (ratio expressed as empty capsids to genome containing vectors). […]\nas §2"}, "spleen": {"system": "spleen", "assay": "Spleen size after triamcinolone in arthritic mice", "format": "in vivo", "procedure": "FIG. 5: Effect of triamcinolone on spleen size and cell populations in different tissues. Arthritis was induced in several groups (n=5 per group), triamcinolone (5 mg/kg) or saline as control was administered intramuscularly on day 22 (2 days before vector administration). […]\nImmunization, intra-articular injections and in vivo imaging were performed under isoflurane anaesthesia (3% isoflurane and oxygen). At the end of the experiments, animals were sacrificed by cardiac puncture under isoflurane anaesthesia, followed by cervical dislocation, after which hind paws, blood, lymph nodes and spleen were collected. The studies were reviewed and approved by the animal care and use committee of the University of Amsterdam (Amsterdam, The Netherlands; Permit Numbers: ART 102881, ART 102656, ART 102793, ART 102948, and ART 103021) and carried out in strict accordance with the recommendations in the Dutch Law on Animal Welfare (Wet op Dierproeven). Animals were maintained under pathogen-free conditions in the animal facility of the University of Amsterdam."}},
  "note": "Like-named read-outs stand apart in the source and are kept apart here.",
  "data": [
    {"smiles": "C[C@]12C=CC(=O)C=C1CC[C@H]1[C@@H]3C[C@@H](O)[C@](O)(C(=O)CO)[C@@]3(C)C[C@H](O)[C@@]12F", "note": "[triamcinolone]", "values": [
      {"measurement": "relative percentage of macrophages (CD68+, F4-80+) in the spleen", "setting": "[1]; compared with saline", "result": "remained similar"},
      {"measurement": "percentage of macrophages in the synovium", "setting": "[1]; pooled animals per group", "result": "decreased"},
      {"measurement": "arthritis activity (clinical score)", "setting": "mice with CIA [2]; Example 2, up to 4 weeks", "result": "trend towards reduced arthritis activity"},
      {"measurement": "arthritis activity (clinical score)", "setting": "mice with CIA [2]; Example 3, up till week 4", "result": "arthritis activity was lower"},
      {"measurement": "intra-articular AAV2 gene expression (luciferase, IVIS)", "setting": "healthy mice [3]", "result": "increased gene expression"},
      {"measurement": "luciferase expression in air pouch membrane", "setting": "air pouch membrane", "result": "luciferase expression was only observed"},
      {"measurement": "rAAV5.CMV.Fluc expression (luminescence)", "setting": "mice with CIA [4]; agent given 48 hours before i.a. vector (triamcinolone 5 mg/kg i.m.; liposomal clodronate 5 μl/g i.v.), over 4 weeks", "result": "improved rAAV5.CMV.Fluc expression"},
      {"measurement": "luciferase expression (generalized estimating equations), compound added separately", "setting": "mice with CIA [4]; followed 6 months", "result": "trend towards increased expression (not significant)"},
      {"measurement": "gene expression (luciferase)", "setting": "mice with CIA [4]; triamcinolone 5 mg/kg locally (i.a.) 2 days prior to i.a. vector + empty capsids 5:1", "result": "enhancement of gene expression"},
      {"measurement": "gene expression (luciferase)", "setting": "mice with CIA [4]; triamcinolone 5 mg/kg systemically (i.m.) 2 days prior to i.a. vector + empty capsids 5:1", "result": "enhancement of gene expression"},
      {"measurement": "intra-articular AAV5 gene expression (luciferase, IVIS)", "setting": "healthy mice [5]", "result": "increased gene expression"},
      {"measurement": "spleen weight", "setting": "spleen; 3 days after triamcinolone/saline administration", "result": "significantly reduced"},
      {"measurement": "decrease of absolute volume of spleen", "setting": "spleen; after triamcinolone 5 mg/kg i.m., at d25, p=0.0011", "result": 4, "unit": "fold"}
    ]}
  ]
}
